The Kinase Knowledgebase extract (Sharma et al. 2016)

Target: MAPK14 (UniProt Q16539)
Test: Enzyme Assay
Details: not given

MAPK14, sequence (Q16539 whole entry, looked up): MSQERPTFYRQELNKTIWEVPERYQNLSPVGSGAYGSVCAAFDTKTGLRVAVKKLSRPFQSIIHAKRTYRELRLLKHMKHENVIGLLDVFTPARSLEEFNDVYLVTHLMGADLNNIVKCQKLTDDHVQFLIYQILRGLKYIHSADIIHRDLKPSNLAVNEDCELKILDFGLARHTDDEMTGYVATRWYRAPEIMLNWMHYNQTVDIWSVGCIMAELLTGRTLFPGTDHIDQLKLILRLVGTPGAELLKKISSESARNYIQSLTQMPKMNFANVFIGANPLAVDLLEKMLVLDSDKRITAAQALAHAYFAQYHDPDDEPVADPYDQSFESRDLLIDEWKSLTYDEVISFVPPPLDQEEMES

| IC50 [µM] | SMILES |
| --- | --- |
| < 2 | O=C(Nc1ccc(Cl)c(COc2cnccn2)c1)c1cc(F)cc(N2CCOCC2)c1 |
| < 2 | O=C(Nc1ccc(F)c(COc2cnccn2)c1)Nc1cc(-c2ccccc2)[nH]n1 |
| < 1000 | Nc1ncccc1OCn1nnc2ccccc21 |
| < 20 | CN1CCN(CC(=O)Nc2cnc(OCc3c(Cl)cccc3Cl)cn2)CC1 |
| < 20 | O=C(Nc1ccc(F)c(COc2cnccn2)c1)c1ccc2ccccc2c1 |
| < 20 | O=C(Nc1cccc(COc2cccnc2)c1)c1cc(F)cc(N2CCOCC2)c1 |
| < 1000 | COc1ccccc1COc1cccnc1N |
| < 200 | O=C(Nc1cccc(COc2cccnc2)c1)c1ccccc1 |
| < 2 | CC(C)(C)c1cc(NC(=O)Nc2ccc(F)c(COc3cnccn3)c2)n(-c2ccc(S(C)(=O)=O)cc2)n1 |
| < 200 | c1cc(COc2cnccn2)cc(Nc2nc3ccccc3o2)c1 |
| < 1000 | c1cc(COc2cccnc2)cc(COc2cccnc2)c1 |
| < 2 | CC(C)(C)c1cccc(C(=O)Nc2ccc(F)c(COc3cnccn3)c2)c1 |
| < 200 | Clc1cccc(Cl)c1COc1ccc(NCc2ccccc2)nc1 |
| < 2000 | Clc1ncccc1OCc1ccccc1 |
| < 20 | O=C(Nc1ccc(Cl)c(COc2cnccn2)c1)c1ccccc1 |
| < 1000 | O=S(=O)(c1ccccc1)N(c1ccc(Cl)c(COc2cccnc2)c1)S(=O)(=O)c1ccccc1 |
| < 1000 | CN1CCCC(CNC(=O)c2cnc(OCc3c(Cl)cccc3Cl)cn2)C1 (configuration not stated) |
| < 20 | O=C(Nc1ccc(F)c(COc2cccnc2)c1)c1cncc(N2CCOCC2)n1 |
| < 1000 | Nc1ncc(OCc2ccccc2)nc1Br |
| < 2 | O=C(Nc1ccc(F)c(COc2cnccn2)c1)c1nnc(-c2ccccc2)o1 |
| < 1000 | Nc1ncccc1OCc1cccc(C(=O)NCC2CC2)c1 |
| < 200 | CNc1cnc(OCc2c(Cl)cccc2Cl)cn1 |
| < 200 | O=S(=O)(Nc1ccc(Cl)c(COc2cccnc2)c1)c1ccccc1 |
| < 1000 | Nc1cccc(COc2cncc(Cl)n2)c1 |

| IC50 [µM] | SMILES |
| --- | --- |
| < 1000 | Nc1ncccc1OCc1cccc(Cl)c1F |
| < 2 | O=C(Nc1ccccc1)C(=O)Nc1ccc(Cl)c(COc2cccnc2)c1 |
| < 1000 | Cc1cccc(COc2cccnc2N)c1F |
| < 1000 | O=C(NCCO)c1cnc(OCc2c(Cl)cccc2Cl)cn1 |
| < 200 | O=C(CN1CCCCC1)Nc1cnc(OCc2c(Cl)cccc2Cl)cn1 |
| < 1000 | CC(=O)Nc1ccc(Cl)c(COc2cccnc2)c1 |
| < 100 | Nc1ncccc1OCc1ccccc1C(F)(F)F |
| < 10000 | Nc1ncccc1OCc1cccc(OC(F)(F)F)c1 |
| < 2 | O=C(Nc1ccc(F)c(COc2cnccn2)c1)Nc1cc(-c2ccc(Cl)cc2)nn1-c1ccccc1 |
| < 20 | O=C(Nc1ccc(Cl)c(COc2cccnc2)c1)c1ccccc1 |
| < 200 | OCCNc1cnc(OCc2c(Cl)cccc2Cl)cn1 |
| < 2 | CC(C)(C)c1cc(NC(=O)Nc2ccc(F)c(COc3cnccn3)c2)n(-c2ccncc2)n1 |
| < 2 | Cc1ccc(-n2nc(C(C)(C)C)cc2NC(=O)Nc2ccc(F)c(COc3cnccn3)c2)cc1 |
| < 20 | O=C(Nc1ccc(Cl)c(COc2cccnc2)c1)Oc1ccccc1 |
| < 200 | CC(C)(CO)C(=O)Nc1cnc(OCc2c(Cl)cccc2Cl)cn1 |
| < 2 | CC(C)(CO)NC(=O)Nc1cnc(OCc2c(Cl)cccc2Cl)cn1 |
| < 1000 | O=C(Nc1ccc(F)c(COc2cnccn2)c1)c1cc(On2nnc3ccccc32)nc(Cl)n1 |
| < 2 | Cc1cc(-n2nc(C(C)(C)C)cc2NC(=O)Nc2ccc(F)c(COc3cnccn3)c2)nc(C)n1 |
| < 1000 | Nc1ccncc1OCc1cccc2ccccc12 |
| < 2 | CC(C)(C)c1cc(NC(=O)Nc2ccc(F)c(COc3cnccn3)c2)n(-c2ccccc2)n1 |
| < 1000 | Nc1ncccc1OCc1csc2ccccc12 |
| < 20 | CC(C)(C)c1csc(NC(=O)Nc2ccc(F)c(COc3cnccn3)c2)n1 |
| < 20 | CC(C)(CO)NC(=O)c1cnc(OCc2c(Cl)cccc2Cl)cn1 |
| < 20 | CC(C)(C)c1cc(NC(=O)Nc2ccc(F)c(COc3cnccn3)c2)n(-c2nc3ccccc3s2)n1 |

| IC50 [µM] | SMILES |
| --- | --- |
| < 2 | O=C(Nc1ccc(Cl)c(COc2ccc(NCc3ccccc3)nc2)c1)c1cc(F)cc(N2CCOCC2)c1 |
| < 2 | O=C(Nc1ccc(Cl)c(COc2ccc(NCCO)nc2)c1)c1cc(F)cc(N2CCOCC2)c1 |
| < 200 | CC(C)(C)c1cc(NC(=O)Oc2cccc(COc3cnccn3)c2)n(-c2ccccc2)n1 |
| < 20 | CC(C)(C)c1ccccc1NC(=O)Nc1ccc(F)c(COc2cccnc2)c1 |
| < 200 | Cc1noc(-c2ccccc2)c1C(=O)Nc1ccc(F)c(COc2cnccn2)c1 |
| < 1000 | Nc1ncccc1OCc1ccc(F)c(F)c1 |
| < 200 | CC(C)(C)c1ccc(-n2nc(C3CC3)cc2NC(=O)Nc2ccc(F)c(COc3cnccn3)c2)cc1 |
| < 200 | CSc1nnc(NC(=O)Nc2ccc(F)c(COc3cnccn3)c2)s1 |
| < 20 | NC(=O)Nc1ccc(Cl)c(COc2cccnc2)c1 |
| < 2 | O=C(Nc1ccc(F)c(COc2cnccn2)c1)c1cccc(S(=O)(=O)N2CCOCC2)c1 |
| < 200 | Cc1nc(-c2cc(C(=O)Nc3ccc(F)c(COc4cnccn4)c3)no2)cs1 |
| < 1000 | Nc1ncccc1OCc1c(F)cc(F)cc1F |
| < 2 | CC(C)(C)c1cc(NC(=O)Nc2ccc(F)c(COc3cnccn3)c2)n(-c2ccc(F)cc2F)n1 |
| < 2 | O=C(Nc1ccc(F)c(COc2cnccn2)c1)Nc1cc(-c2ccccc2)nn1-c1ccccc1 |
| < 20 | CC(C)(Cc1ccncc1)NC(=O)c1cnc(OCc2c(Cl)cccc2Cl)cn1 |
| < 2 | Cc1nc(-c2cccc(C(=O)Nc3ccc(F)c(COc4cnccn4)c3)c2)cs1 |
| < 2 | CC(C)(C)c1cc(C(=O)Nc2ccc(F)c(COc3cnccn3)c2)cc(C(C)(C)C)c1 |
| < 20 | CC(C)(C)c1ccc(C(=O)Nc2ccc(F)c(COc3cnccn3)c2)cc1 |
| < 200 | O=C(Nc1ccc(Cl)c(COc2cccnc2)c1)c1ccncc1 |
| < 2 | CC(C)(C)c1cc(NC(=O)Nc2ccc(F)c(COc3cnccn3)c2)n(Cc2ccccc2)n1 |
| < 200 | CN1CCC(CC(=O)Nc2cnc(OCc3c(Cl)cccc3Cl)cn2)CC1 |
| < 1000 | Nc1nccnc1OCc1cccc2ccccc12 |

Target: MAPK14 (human) (UniProt Q16539)
Test: Inhibition of LPS-Induced TNF-alpha Production in THP-1 Cells
Details: thp1

MAPK14 (human), sequence (Q16539 whole entry, looked up): as above

| IC50 [µM] | SMILES |
| --- | --- |
| 0.21 | O=C(Nc1ccc(Cl)c(COc2cnccn2)c1)c1cc(F)cc(N2CCOCC2)c1 |
| 0.97 | O=C(Nc1ccc(Cl)c(COc2ccc(NCCO)nc2)c1)c1cc(F)cc(N2CCOCC2)c1 |
